Tests used:
[1] = test system: full thickness open excisional wounds; experiment: Full thickness open excisional wound healing study; assay type: in vivo, Yucatan Miniature Swine; conditions: day 3 to day 22
Procedure: A 21-day full thickness open excisional wound healing study was conducted on Yucatan™ Miniature Swine (Sinclair BioResources, Auxvasse, Missouri, USA) to evaluate the efficacy of healing and local tissue reaction of compounds of Formula (I). Compounds and controls were topically administered on full thickness open excisional wounds once every other day (total 11 doses).
The negative control for this study was saline (0.9%). The tes compositions for these studies are described as follows.
The test composition in the full thickness open excisional wound studies for compounds without GO-HA (no GO-HA added) was a mixture with an overall concentration of 0.25 to 0.27 mg/mL of the respective compound in serum formulation as follows: compound (10 mg), butylene glycol (1.80 mL), polysorbate 20 (1.80 mL), phosphatidyl choline (0.44 g), ethanol (1.80 mL), ultra pure water (30 mL), and hydroxypropyl cellulose (0.285 g).
The test composition in the full thickness open excisional wounds studies for compounds with GO-HA (Compound+GO-HA) was a mixture with an overall concentration of 1.0 mg/mL of the respective compound and 1.0 mg/mL of GO-HA in serum formulation as follows: compound (35 mg), butylene glycol (1.8 mL), polysorbate 20 (1.8 mL), phosphotidyl choline (0.44 g), ethanol (1.8 mL), GO-HA (35 mg), ultra pure water (30 mL), and hydroxypropyl cellulose (0.285 g). […]

[2] = test system: Full-thickness, 3rd degree burn wounds; experiment: 3rd degree burn wound healing study (60-day); assay type: in vivo, Yucatan minipig; conditions: for burn wound healing rate versus saline control: about day 16 to day 30; for burn wound histology (H&E) versus saline and GO-HA: improved organized reticular collagen and rete ridge formation
Procedure: The test composition in the closed excisional wound and burn studies for compounds without GO-HA (no GO-HA added) was a mixture with an overall concentration of 0.20 to 0.25 mg/mL of the respective compound in serum formulation as follows: compound (4 mg), butylene glycol (0.80 mL), polysorbate 20 (0.40 mL), ultra pure water (18 mL), and hydroxypropyl cellulose (0.12 g).
The test composition in the closed excisional wound and burn studies for compounds with GO-HA (Compound+GO-HA) was a mixture with an overall concentration of 1.0 mg/mL of the respective compound and 0.5 mg/mL of GO-HA in serum formulation as follows: compound (18 mg), PEG 400 (0.8 mL), GO-HA (9 mg), ultra pure water (18 mL), and hydroxypropyl cellulose (0.12 g).
Full-thickness 60-day burn wound healing study. Full-thickness, 3rd degree burn wounds of 3×3 cm^2 size were created on the back of the Yucatan minipig (5 wounds on each side of the spine, 10 total per swine) by using a brass cylinder (circular cross-section, 3 cm diameter) that was preheated in an oven at 100° C. and applied to the dorsal skin with light pressure for 30 seconds. Debridement of the wounds occurred day 7 post-dose. Compounds were dosed topically three times a week (0.24 mL) for thirty days. At 30 day time-point, the wounds were photographed once a week and NO dosing of compounds conducted from day 31-60. On day 60 animals were sacrificed and tissue prepared for analysis.

[3] = test system: elastic cartilage; experiment: Elastic cartilage regeneration in rabbit ear punch wounds (stained cross sections, day 45); assay type: in vivo; conditions: for average distance between opposing cartilage endplates: original 8 mm wound margin, saline 6 mm; for average cartilage growth upon closure of the wound: saline 2 mm; for average cartilage tissue regrowth: saline about 25%; for cartilage regeneration by histology: versus control
Procedure: Compounds of Formula (I) were tested and compared to saline control in elastic cartilage regeneration tests. Rabbit ears were punched through and through with an 8 mm punch. 4 holes were punched in each ear of the specimen (four positions L1, L2, L3, and L4 in the left ear and four positions R5, R6, R7, and R8 in right ear). Saline was applied via a spray on the control specimen, Compound 8 was applied via a phospholipid spray on another specimen, and Compound 18 was applied via a phospholipid spray on yet another specimen. The phospholipid spray contained compound (45 mg), butylene glycol (2 mL), polysorbate 20 (2 mL), phosphotidyl choline (0.5 g), ethanol (2 mL), and ultra pure water (40 mL).
At day 45, the tests were stopped and the tissue was processed. An embed cut was made across the center point of the healed wounds in each site (FIG. 7, top). A slide was used to obtain sectioned tissue sample for staining and imaging (FIG. 7, bottom).
After staining with either Safronin O or Trichrome Blue, the distance between the opposing cartilage endplates was measured. From the original 8 mm wound margin distance, the saline control averaged 6 mm of distance between opposing cartilage endplates (FIG. 8), or 2 mm of average cartilage growth upon closure of the wound (about 25% average cartilage tissue regrowth). Compounds of Formula (I) (Compound 8 and Compound 18) provided about 2-3 mm average distance between opposing cartilage endplates (FIG. 8), or […] of average cartilage growth upon closure of the wound (about 68-75% average cartilage tissue regrowth).
FIGS. 9-11 display the original 8 mm wound margin (top, two vertical gray lines) and in an inset (bottom left, curved gray line). FIGS. 9-11 show expanded views of the cartilage regeneration site where chondrocytes are newly formed within the wound margin. Comparing FIG. 10 (Compound 8) and FIG. 11 (Compound 18) to FIG. 9 (control), cartilage regeneration using compounds of Formula (I) was confirmed.

[4] = test system: healed wound sites; experiment: Physical properties of healed wounds, summary; assay type: in vivo, porcine; conditions: compared to the control
Procedure: Additional tests were performed including elasticity (Table 12); max force (Table 13); tensile strength (strain) (Table 14); energy peak (Table 15); rete-ridge formation; and collagen organization (plane polarized light) (FIG. 24) of the healed wound sites, described as follows.
Wounds treated with 0.9% saline provided the least wound healing integrity for elasticity, max force, strain, and energy peak parameters.

Row | SMILES | wound healing throughout the entire test [1] | burn wound healing rate versus saline control [2] | burn wound histology (H&E) versus saline and GO-HA [2] | average distance between opposing cartilage endplates [3] | average cartilage growth upon closure of the wound [3] | average cartilage tissue regrowth [3] | cartilage regeneration by histology [3] | wound healing integrity (physical properties of the healed wound site) [4]
1 | O=c1[nH]c(-c2ccc(-c3ccc(Br)nc3)cc2)nc2c1CSCC2 [Compound 7, 2-(4-(6-bromopyridin-3-yl)phenyl)-3,5,7,8-tetrahydro-4H-thiopyrano [4,3-d]pyrimidin-4-one] | improved wound healing throughout the entire test | statistically significant improved burn wound healing rates | promoted regeneration of tissue (improved organized reticular collagen and rete ridge formation) and reduced scar formation | – | – | – | – | –
2 | CC(C)(OCCO)c1ccc(-c2nc3c(c(=O)[nH]2)CSCC3)cc1 [Compound 8, 2-(4-(2-(2-hydroxyethoxy)propan-2-yl)phenyl)-3,5,7,8-tetrahydro-4H-thiopyrano[4,3-d]pyrimidin-4-one] | improved wound healing throughout the entire test | statistically significant improved burn wound healing rates | promoted regeneration of tissue (improved organized reticular collagen and rete ridge formation) and reduced scar formation | 2-3 mm | 5.5-6 mm | 68-75% | newly formed chondrocytes are more numerous and larger than in the control | –
3 | O=c1[nH]c(-c2ccc(-c3ccc(B(O)O)cc3)cc2)nc2c1CSCC2 [Compound 10, (4′-(4-oxo-3,5,7,8-tetrahydro-4H-thiopyrano[4,3-d]pyrimidin-2-yl)-[1,1′-biphenyl]-4-yl)boronic acid] | – | – | – | – | – | – | – | greatest wound healing integrity
4 | COC(=O)NCCOC(C)(C)c1ccc(-c2nc3c(c(=O)[nH]2)CSCC3)cc1 [Compound 18, methyl (2-((2-(4-(4-oxo-3,5,7,8-tetrahydro-4H-thiopyrano[4,3-d]pyrimidin-2-yl)phenyl)propan-2-yl)oxy)ethyl)carbamate] | – | – | – | 2-3 mm | 5.5-6 mm | 68-75% | newly formed chondrocytes are more numerous and larger than in the control | –

Reference: patent US20260356860A1, “2-SUBSTITUTED 3,4A,5,7,8,8A-HEXAHYDRO-4H-THIOPYRANO[4,3-DJPYRIMIDIN-4-ONES FOR WOUND TREATMENT” (priority 2022, published 2026)
